Results on two compounds are retold here after US11530385B2, “Hormone responsive tissue culture system and uses thereof” (Whitehead Institute for Biomedical Research, priority 2007, dated 2022).

For one assay, the system named is BPLER xenograft tumors. Briefly: hormone responsiveness of BPLER xenograft tumors in mice. Format: in vivo. The note with it: estrogen treated animals. The text has this:
In one respect, the histology of tumors arising from BPLER is very similar, if not identical to human ductal breast carcinoma. There is prominent luminal marker CK18 expression in BPLER cells and tumors. There is also prominent expression of E-cadherin, a marker indicating polarization of cells. Morphology wise, BPLER xenografts form glandular structures similar to those seen in human tumors. BPLER xenografts into mammary fat pads are invasive into adjacent skeletal muscle, and cause a desmoplastic reaction. BPLER xenografts also express progesterone receptors based on immunohistological staining of xenograft tumor samples. In addition, BPLER tumor sizes respond to estrogen treatment, in that xenograft tumors weighed about 70-100% more in estrogen treated animals than in control animals. BPLER tumors spread within the breast tissue of mice, and the multifocal growth is consistent with lymphovascular invasion and spread of tumors. […]
Analysis of tumorigenicity and metastasis: Single-cell suspensions were prepared in a WIT:Matrigel (1:1) mixture and injected in 25 μL (orthotopic) and 100 μl (subcutaneous) volumes. […] Metastasis to lungs and other tissues was analyzed initially under a dissecting microscope (Leica) in fresh tissues, followed by microscopic examination of hematoxylin-eosin and immunostained sections of formalin-fixed and paraffin-embedded tissues. […]

Another assay concerns BPE cells. As to the kind of experiment: in vitro growth inhibition by estrogen antagonist, BPE cells. Format: cell-based, human. The note with it: data not shown. From the text: (§1) Expression of CK18 and BER-Ep4 both confirm the adenocarcinoma features and exclude a squamous tumor. E-cadherin excludes a mesenchymal tumor. BPLER xenografts express progesterone receptor, which is consistent with the notion that BPLER xenografts are hormone-responsive. This was confirmed by experiments in which estrogen-progesterone treatment of mice increased subject tumor size approximately two-fold compared to untreated mice. […] Similar tumor xenografts from cells cultured in the MEGM media was negative for progesterone receptor expression and the in vitro growth inhibition of the cells with ICI 182,780 was less than 20% (data not shown).

For the next assay, the system named is BPLE cells. Briefly: in vitro growth inhibition by estrogen antagonist, BPLE cells. The note with it: data not shown. Format: cell-based, human.
Description: as §1

Assay [1] relates to cells cultured in the MEGM media. As to the kind of experiment: in vitro growth inhibition by estrogen antagonist, cells cultured in the MEGM media. Format: cell-based, human. The note with it: data not shown.
Description: as §1

The next assay concerns BPEC cells. As to the kind of experiment: in vitro growth inhibition by estrogen antagonist, BPEC cells. Conditions: data not shown. Format: cell-based, human.
Description: as §1

As to estrogen, the “xenograft tumor weight increase in treated animals vs control animals” value in the assay with BPLER xenograft tumors is 70-100%.
For `C[C@]12CC[C@@H]3c4ccc(O)cc4C[C@@H](CCCCCCCCC[S+]([O-])CCCC(F)(F)C(F)(F)F)[C@H]3[C@@H]1CC[C@@H]2O` (some centres unmarked) [ICI 182,780], the growth inhibition with BPE cells, with BPLE cells and in the assay with BPEC cells was more than 80% each time. In addition, the “in vitro growth inhibition” value in assay [1] is “less than 20%”.
